The values below come from paper PMC11241330, “Development of a Radiolabeled Cyclin-Dependent Kinases 4 and 6 (CDK4/6) Inhibitor for Brain and Cancer PET Imaging” (International Journal of Molecular Sciences, 2024).

The term IC50 denotes the point on the concentration scale where inhibition reaches its midpoint. Lower therefore signals greater potency in that assay.

Test [1] addresses T1, CDK4 (Homo sapiens, UniProt P11802).
T1 construct: purified recombinant CDK4/CyclinD3; with CyclinD3
As to the kind of experiment: luminescence kinase activity assay (BPS Bioscience CDK4/CyclinD3 kit #[…]). It counts as biochemical.

Test [2] has as its target T2, CDK6 (Homo sapiens, UniProt Q00534).
T2 construct: purified recombinant CDK6/CyclinD3; with CyclinD3
As to the kind of experiment: luminescence kinase activity assay (BPS Bioscience CDK6/CyclinD3 kit #[…]). It counts as biochemical.

T2 sequence (Q00534 whole entry): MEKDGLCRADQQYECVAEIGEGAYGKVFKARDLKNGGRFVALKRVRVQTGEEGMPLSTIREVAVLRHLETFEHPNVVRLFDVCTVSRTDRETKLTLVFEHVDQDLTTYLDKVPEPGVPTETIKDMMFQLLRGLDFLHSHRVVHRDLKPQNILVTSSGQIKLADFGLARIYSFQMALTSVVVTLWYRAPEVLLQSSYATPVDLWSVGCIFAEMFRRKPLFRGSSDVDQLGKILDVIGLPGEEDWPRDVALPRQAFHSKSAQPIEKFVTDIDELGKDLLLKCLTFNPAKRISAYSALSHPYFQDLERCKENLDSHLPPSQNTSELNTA
T2 sequence (P30281 whole entry partner): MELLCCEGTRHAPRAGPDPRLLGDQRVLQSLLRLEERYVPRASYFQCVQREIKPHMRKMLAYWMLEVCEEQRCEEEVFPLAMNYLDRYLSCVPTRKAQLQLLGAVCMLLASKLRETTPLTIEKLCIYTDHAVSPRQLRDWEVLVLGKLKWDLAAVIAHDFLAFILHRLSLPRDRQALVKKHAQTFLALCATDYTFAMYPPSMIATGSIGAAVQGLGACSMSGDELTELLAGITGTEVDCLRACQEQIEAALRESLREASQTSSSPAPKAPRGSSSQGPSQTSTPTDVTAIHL
T1 sequence (P11802 2-303): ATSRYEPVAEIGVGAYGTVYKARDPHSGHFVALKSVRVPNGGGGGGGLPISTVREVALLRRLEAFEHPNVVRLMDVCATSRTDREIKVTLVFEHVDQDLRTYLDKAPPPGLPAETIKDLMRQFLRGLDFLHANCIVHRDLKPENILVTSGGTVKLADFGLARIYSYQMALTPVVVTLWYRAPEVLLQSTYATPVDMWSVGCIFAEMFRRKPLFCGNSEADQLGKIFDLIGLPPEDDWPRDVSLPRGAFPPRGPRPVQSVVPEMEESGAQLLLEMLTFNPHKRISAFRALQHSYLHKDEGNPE
T1 sequence (P30281 whole entry partner): as the sequence (P30281 whole entry partner) above

For the compound `CC(C)n1cnc2c(F)cc(-c3nc(Nc4ccc(CN5CCN(Cc6ccc(F)cc6)CC5)cn4)ncc3F)cc21` [NT431, 5-fluoro-4-(4-fluoro-1-isopropyl-1H-benzo[d]imidazol-6-yl)-N-(5-((4-(4-fluorobenzyl)piperazin-1-yl)methyl)pyridin-2-yl)pyrimidin-2-amine], the concentration for half-maximal inhibition (IC50) came to 23.7 nM in test [1] and 47.1 nM in test [2].
